Measured values from patent publication US20150203517A1, “Prodrugs of Compounds that Enhance Antifungal Activity and Compositions of Said Prodrugs” (priority 2014, published 2015).
Read-outs that look alike come from different tables or passages of the source.

Experiment: Saline solubility at 1.00 mg/mL and 0.50 mg/mL (with pH by indicator paper)
Format: physicochemical
Conditions: for solubility at 1 h: saline or isotonic, thermodynamic from solid, centrifuged, soluble = no precipitate formed; for pH at 1.00 mg/mL of MGCD290 in saline: final concentration of hydroxamate 1 1.00 mg/mL, pH indicator paper
Outline: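 Prodrug was weighed to give 1.00 mg/mL hydroxamate equivalent in saline, vortexed 1 h and centrifuged, and diluted to 0.50 mg/mL if it precipitated. pH was checked by indicator paper. Stability in solution diluted 1:1 with saline was followed by HPLC-UV at 0, 6 and 24 h.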

[1] = 0.50 mg/mL as hydroxamate 1, shaken 1 hour, read-out: Soluble at 0.5 mg/mL of MGCD290 (Y/N)
[2] = 1.00 mg/mL as hydroxamate 1, shaken 1 hour, read-out: Soluble at 1.00 mg/mL of MGCD290 (Y/N)

Compound | solubility at 1 h [1] [µg/mL] | solubility at 1 h [2] [µg/mL] | pH at 1.00 mg/mL of MGCD290 in saline
CC(=O)ONC(=O)Cc1ccc(CCCCc2ccccc2)cc1 [Compound 52D] | < 500 | < 1000 | 
COCCOCCOCC(=O)N1CCC(CCC(=O)ONC(=O)Cc2ccc(CCCCc3ccccc3)cc2)CC1 [Compound 112] | < 500 | < 1000 | 5.5-6
COCCOCCOCC(=O)NCCCC[C@H](NC(=O)COCCOCCOC)C(=O)NC[C@H](C)C(=O)ONC(=O)Cc1ccc(CCCCc2ccccc2)cc1 [Compound 91] |  | > 1000 | 4.5-5
Cl.O=C(Cc1ccc(CCCCc2ccccc2)cc1)NOC(=O)COC1CCNCC1 [Compound 125, 2-(4-(4-phenylbutyl)phenyl)-N-(2-(piperidin-4-yloxy)acetoxy)acetamide hydrochloride] | < 500 | < 1000 | 4.5-5
CCCC(CCC)C(=O)ONC(=O)Cc1ccc(CCCCc2ccccc2)cc1 [Compound 50, 2-(4-(4-Phenylbutyl)phenyl)-N-(2-propylpentanoyloxyl)acetamide] | < 500 | < 1000 | 
COCCOCCOCCNC(=O)NCCC(=O)NCC1(C(=O)ONC(=O)Cc2ccc(CCCCc3ccccc3)cc2)CC1 [Compound 79, N-1-(2-(2-(2-Methoxyethoxyl)ethoxy)ethyl)-N-3-(2-(1-((2-(4-(4-phenylbutyl)phenyl)acetamidooxy)carbonylcyclopropyl)methyl)carbamoylethyl)urea] | < 500 | < 1000 | 4.5-5

More lines, now with the values ahead:

solubility at 1 h [1] [µg/mL] | solubility at 1 h [2] [µg/mL] | pH at 1.00 mg/mL of MGCD290 in saline | Compound
< 500 | < 1000 | 4.5-5 | O=C1COCCOCCOCC(=O)N[C@H](C(=O)NCCC(=O)ONC(=O)Cc2ccc(CCCCc3ccccc3)cc2)CCCCN1 [Compound 84]
< 500 | < 1000 | 5.5-6 | COCCOCCOCC(=O)N1CC(CCCC(=O)ONC(=O)Cc2ccc(CCCCc3ccccc3)cc2)C1 [Compound 128B]
< 500 | < 1000 | 4.5-5 | COCCOCCOCCOCCOCC(=O)NCC1(C(=O)ONC(=O)Cc2ccc(CCCCc3ccccc3)cc2)CC1 [Compound 56]
< 500 | < 1000 |  | O=C(Cc1ccc(CCCCc2ccccc2)cc1)NOC(=O)CCC1CCCCC1 [Compound 52]
 | > 1000 | 5-5.5 | COCCOCCOCC(=O)NCCCC[C@H](N)C(=O)NCCC(=O)ONC(=O)Cc1ccc(CCCCc2ccccc2)cc1.Cl [Compound 142, (S)-2-Amino-6-(2-(2-(2-methoxyethoxy)ethoxy)acetamido)-N-(3-oxo-3-(2-(4-(4-phenylbutyl)phenyl)acetamidooxy)propyl) hexanamide hydrochloride]
< 500 | < 1000 | 4.5-5 | COCCC(=O)NCCCC[C@H](NC(=O)CCOC)C(=O)NCCC(=O)ONC(=O)Cc1ccc(CCCCc2ccccc2)cc1 [Compound 148]
< 500 | < 1000 | 4.5-5 | COCCOCCOCCOCCOCC(=O)NCCC(=O)ONC(=O)Cc1ccc(CCCCc2ccccc2)cc1 [Compound 61]
